Laboratory results as given in patent US8080570B2, “α2B and α2C agonists” (Allergan, Inc., priority 2008, dated 2011).

Experiments:
Format in all cases: cell-based
α2A = target: T1, α2A (Homo sapiens, UniProt P08913); assay: FLIPR intracellular calcium assay, α2A; conditions: for EC50: FLIPR, fluo-3 calcium, NA = not active, read-out: α2A potency (EC50); for α2A relative efficacy: value in parentheses, relative to a standard full agonist
T1 sequence (P08913 1-465): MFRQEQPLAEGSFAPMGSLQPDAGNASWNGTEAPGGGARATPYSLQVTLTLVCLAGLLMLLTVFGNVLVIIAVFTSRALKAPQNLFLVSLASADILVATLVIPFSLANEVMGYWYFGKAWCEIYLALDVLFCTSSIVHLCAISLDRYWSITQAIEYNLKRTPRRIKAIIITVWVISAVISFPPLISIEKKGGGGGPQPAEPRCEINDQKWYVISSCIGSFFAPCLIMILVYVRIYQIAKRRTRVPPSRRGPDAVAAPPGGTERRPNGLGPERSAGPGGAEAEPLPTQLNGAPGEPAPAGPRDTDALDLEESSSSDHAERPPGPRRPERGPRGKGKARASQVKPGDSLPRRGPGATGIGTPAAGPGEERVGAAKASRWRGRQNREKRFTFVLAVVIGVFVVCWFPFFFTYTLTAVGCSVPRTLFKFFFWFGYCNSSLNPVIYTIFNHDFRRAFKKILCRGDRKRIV

α2B = target: T2, α2B (Homo sapiens, UniProt P18089); assay: FLIPR intracellular calcium assay, α2B; conditions: for EC50: FLIPR, fluo-3 calcium, NA = not active, read-out: α2B potency (EC50); for α2B relative efficacy: value in parentheses, relative to a standard full agonist
T2 sequence (P18089 1-450): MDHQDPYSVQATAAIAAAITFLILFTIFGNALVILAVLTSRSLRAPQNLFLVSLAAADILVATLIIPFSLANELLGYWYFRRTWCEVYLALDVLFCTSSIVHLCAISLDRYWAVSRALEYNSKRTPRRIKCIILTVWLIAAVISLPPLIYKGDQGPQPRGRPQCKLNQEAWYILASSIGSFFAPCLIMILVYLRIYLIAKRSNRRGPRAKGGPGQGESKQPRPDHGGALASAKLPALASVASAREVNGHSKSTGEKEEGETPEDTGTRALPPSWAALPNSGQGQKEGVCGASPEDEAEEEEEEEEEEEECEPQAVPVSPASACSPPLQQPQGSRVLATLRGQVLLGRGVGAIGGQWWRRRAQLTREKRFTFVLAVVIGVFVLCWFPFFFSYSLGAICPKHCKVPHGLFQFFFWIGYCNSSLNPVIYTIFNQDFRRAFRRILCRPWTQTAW

α1B = target: T3, α1B (UniProt P35368); assay: FLIPR intracellular calcium assay, α1B; conditions: for EC50: FLIPR, fluo-3 calcium, NA = not active, read-out: α1B potency (EC50); for α1B relative efficacy: value in parentheses, relative to a standard full agonist
T3 sequence (P35368 1-520): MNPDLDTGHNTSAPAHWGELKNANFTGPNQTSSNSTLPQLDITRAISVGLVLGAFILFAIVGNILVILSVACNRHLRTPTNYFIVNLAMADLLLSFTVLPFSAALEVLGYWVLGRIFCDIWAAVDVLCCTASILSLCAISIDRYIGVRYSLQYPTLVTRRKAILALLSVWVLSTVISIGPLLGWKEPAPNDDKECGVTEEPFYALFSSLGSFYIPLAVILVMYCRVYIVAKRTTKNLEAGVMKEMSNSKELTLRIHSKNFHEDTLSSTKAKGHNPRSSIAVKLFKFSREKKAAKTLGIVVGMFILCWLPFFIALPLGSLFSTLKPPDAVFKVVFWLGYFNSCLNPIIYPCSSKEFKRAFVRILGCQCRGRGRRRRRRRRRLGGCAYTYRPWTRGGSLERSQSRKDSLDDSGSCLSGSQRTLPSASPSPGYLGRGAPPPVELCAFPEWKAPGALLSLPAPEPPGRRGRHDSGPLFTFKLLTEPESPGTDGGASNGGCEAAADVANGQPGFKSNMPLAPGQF
Description: (§1) Selected examples were tested via the intracellular calcium assay known as Fluorometric Imaging Plate Reader (FLIPR) which involves the detection of calcium pulses by fluo-3 for analyzing function proximal to α1 receptor activation. […] The compound's activity is expressed as its relative efficacy compared to a standard full agonist.

α1A = target: T4, α1A (UniProt P35348); assay: FLIPR intracellular calcium assay, α1A; conditions: for EC50: FLIPR, fluo-3 calcium, NA = not active, read-out: α1A potency (EC50); for α1A relative efficacy: value in parentheses, relative to a standard full agonist
T4 sequence (P35348 1-466): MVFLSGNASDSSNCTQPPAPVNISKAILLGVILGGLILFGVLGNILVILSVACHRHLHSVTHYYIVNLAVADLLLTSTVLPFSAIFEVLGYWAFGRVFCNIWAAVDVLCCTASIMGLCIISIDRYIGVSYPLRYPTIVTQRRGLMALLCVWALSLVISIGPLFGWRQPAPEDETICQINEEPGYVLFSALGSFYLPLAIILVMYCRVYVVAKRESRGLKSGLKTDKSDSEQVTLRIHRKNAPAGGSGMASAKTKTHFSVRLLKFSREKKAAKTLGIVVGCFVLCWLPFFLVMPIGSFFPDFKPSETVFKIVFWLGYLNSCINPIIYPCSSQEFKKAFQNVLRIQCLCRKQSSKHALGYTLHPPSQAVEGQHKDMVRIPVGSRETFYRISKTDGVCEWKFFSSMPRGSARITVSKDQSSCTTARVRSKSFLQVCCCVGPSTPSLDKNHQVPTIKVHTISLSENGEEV
Description: as §1

α2C = target: T5, α2C (Homo sapiens, UniProt P18825); assay: FLIPR intracellular calcium assay, α2C; conditions: for EC50: read-out: α2C potency (EC50); for α2C relative efficacy: value in parentheses, relative to a standard full agonist
T5 sequence (P18825 1-462): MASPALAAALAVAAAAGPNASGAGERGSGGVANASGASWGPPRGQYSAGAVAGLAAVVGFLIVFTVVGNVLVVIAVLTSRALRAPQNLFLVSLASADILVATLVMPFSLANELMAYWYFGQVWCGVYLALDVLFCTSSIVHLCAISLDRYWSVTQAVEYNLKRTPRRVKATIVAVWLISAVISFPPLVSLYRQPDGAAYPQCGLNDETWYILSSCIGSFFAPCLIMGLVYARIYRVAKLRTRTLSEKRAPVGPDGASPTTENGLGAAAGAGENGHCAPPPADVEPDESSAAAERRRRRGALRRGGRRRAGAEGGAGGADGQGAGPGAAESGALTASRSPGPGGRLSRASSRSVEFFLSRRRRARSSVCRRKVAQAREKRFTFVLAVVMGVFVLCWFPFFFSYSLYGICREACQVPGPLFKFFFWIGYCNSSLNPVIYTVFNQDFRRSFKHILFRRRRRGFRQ

[1] = FLIPR, fluo-3 calcium, NA = not active

C#CC(C)NC1=NCCO1 (stereo not drawn)
EC50 (α2A): 4050 nM
α2A relative efficacy (α2A): 0.20
EC50 (α2B): 413 nM
α2B relative efficacy (α2B): 0.77
EC50 (α1B): > 10 µM
EC50 (α1A): > 10000 nM
EC50 (α2C; [1]): 34.6 nM
α2C relative efficacy (α2C): 0.89

C#CC(CC)NC1=NCCO1 (stereo not drawn)
EC50 (α2A): 54.7 nM
α2A relative efficacy (α2A): 0.74
EC50 (α2B): 91.5 nM
α2B relative efficacy (α2B): 0.82
EC50 (α1A): 6540 nM
α1A relative efficacy (α1A): 0.78
EC50 (α2C; [1]): 0.004 nM
α2C relative efficacy (α2C): 0.87

C#CC(CCC)NC1=NCCO1 (stereo not drawn)
EC50 (α2A): 664 nM
α2A relative efficacy (α2A): 0.44
EC50 (α2B): 386 nM
α2B relative efficacy (α2B): 0.68
EC50 (α1B): > 10 µM
EC50 (α1A): 3030 nM
α1A relative efficacy (α1A): 0.72
EC50 (α2C; [1]): 65 nM
α2C relative efficacy (α2C): 0.99

C#CC(CC(C)C)NC1=NCCO1 (stereo not drawn)
EC50 (α2A): > 10000 nM
EC50 (α2B): 331 nM
α2B relative efficacy (α2B): 0.48
EC50 (α1B): > 10 µM
EC50 (α1A): 7370 nM
α1A relative efficacy (α1A): 0.59
EC50 (α2C; [1]): 18.3 nM
α2C relative efficacy (α2C): 0.98

C#CC(NC1=NCCO1)c1ccccc1 (stereo not drawn)
α2A relative efficacy (α2A): 0.04 (0.82)
α2B relative efficacy (α2B): 1.12 (0.61)
α1A relative efficacy (α1A): 0.58 (0.92)
α2C relative efficacy (α2C): Potent (0.82)

C#C[C@H](NC1=NCCO1)C(C)C
EC50 (α2A): 16.9 nM
α2A relative efficacy (α2A): 0.85
EC50 (α2B): 64 nM
α2B relative efficacy (α2B): 0.88
EC50 (α1B): 5.94 µM
α1B relative efficacy (α1B): 0.28
EC50 (α1A): 1200 nM
α1A relative efficacy (α1A): 0.93
α2C potency (EC50) (α2C; [1]): Potent
α2C relative efficacy (α2C): 1.02

C#CC(NC1=NCCO1)C1CC1 (stereo not drawn)
EC50 (α2A): 298 nM
α2A relative efficacy (α2A): 0.41
EC50 (α2B): 354 nM
α2B relative efficacy (α2B): 0.71
EC50 (α1B): > 10 µM
EC50 (α2C; [1]): 127 nM
α2C relative efficacy (α2C): 0.89

C#CC(NC1=NCCO1)c1ccccc1Br (stereo not drawn)
EC50 (α2A): > 10000 nM
EC50 (α2B): 361 nM
α2B relative efficacy (α2B): 0.36
EC50 (α1B): > 10 µM
EC50 (α1A): 1650 nM
α1A relative efficacy (α1A): 0.34
EC50 (α2C; [1]): 295 nM
α2C relative efficacy (α2C): 0.81

N#CC(NC1=NCCO1)c1ccccc1 (stereo not drawn)
EC50 (α2A): 588 nM
α2A relative efficacy (α2A): 0.42
EC50 (α2B): 215 nM
α2B relative efficacy (α2B): 0.56
EC50 (α1A): 1140 nM
α1A relative efficacy (α1A): 0.99
EC50 (α2C; [1]): 158 nM
α2C relative efficacy (α2C): 0.76

C#CC(NC1=NCCO1)c1cccc(F)c1F (stereo not drawn)
EC50 (α2A): 30 nM
α2A relative efficacy (α2A): 0.79
EC50 (α2B): 25.9 nM
α2B relative efficacy (α2B): 0.50
EC50 (α1B): 3.51 µM
α1B relative efficacy (α1B): 0.54
EC50 (α1A): 40.8 nM
α1A relative efficacy (α1A): 0.96
EC50 (α2C; [1]): 6.01 nM
α2C relative efficacy (α2C): 0.88

C#CC(NC1=NCCO1)c1cccc(Cl)c1 (stereo not drawn)
EC50 (α2A): 80.5 nM
α2A relative efficacy (α2A): 0.88
EC50 (α2B): 218 nM
α2B relative efficacy (α2B): 0.56
EC50 (α1B): 5.36 µM
α1B relative efficacy (α1B): 0.24
EC50 (α1A): 410 nM
α1A relative efficacy (α1A): 0.81
EC50 (α2C; [1]): 382 nM
α2C relative efficacy (α2C): 0.78
